Patent US20230248626A1, “Compositions Comprising (Bio)-Alkanediols” (Symrise AG, priority 0001, published 2023)
Values after ≈ are worked out from the molar mass of the structure shown.

Columns and labels:
Assay type in all cases: cell-based
[1] = tested on: reactive oxygen species (ROS) on ex vivo skin; assay: DCF assay, ROS score on ex vivo skin, aqueous/alcoholic (ethanolic) test system; details: vehicle (EtOH/H2O) plus alkanediol only
Description: A dichlorofluorescein test (DCF) assay was performed in order to determine the amount of reactive oxygen species (ROS) on ex vivo skin treated with different test samples in a lipophilic or an aqueous/alcoholic system as described below.
DCF assay—assay principle: Ex vivo skin was incubated with 2′,7′-dichlorodihydrofluorescein diacetate at 37° C., 5% CO2. After PBS washing, samples were exposed or not to cumene hydroperoxide. Immediately after exposure, ex vivo skin samples were frozen in liquid nitrogen and 5 μm cryostat sections were made and fixed with acetone to allow the visualisation of fluorescence generated by ROS in cells of the reconstructed skins. The resulting fluorescence was measured at EX/EM 504/524 nm. Green fluorescence was quantified in ex vivo skin using ImageJ software. The depth of immunostaining was measured as follows: green DCFH-DE positive cells were automatically detected using Histolab software and the distance between dermal epidermal junction and the deepest positive cells were measured in each condition. Means were compared using a student's test. […]
The image acquisition was performed by using Olympus BX51 microscope and Olympus DP70 camera. For each skin sample two skin sections have been taken and the related fluorescent images acquired and analyzed. Thus, for each test condition, 12 images have been acquired and analyzed (i.e. 12 data). […]

human sebaceous glands = assay: Sebum production of micro-dissected, cultured human sebaceous glands (lipids/proteins after six days); design: sebum reduction: concentration or dose not given beside the values; details: compared to untreated control; six days; single donor (FIG. 4)
Description: Additional tests were performed with human sebaceous glands in order to verify the modulatory activity of different 1,2-alkanediols and 2,3-alkanediols on sebum secretion. Several microbial species on the skin are lipid dependent and feed on the human sebum (e.g. Corynebacterium, Propionibacterium). Accordingly, sebum reduction can indirectly support the reduction of microorganisms on the skin and in this way also indirectly support e.g. dandruff or acne reduction.
For these experiments sebaceous glands had been micro-dissected and cultured with medium. The medium without any supplement served as untreated control. Medium with 5 μM Capsaicin served as positive control. Additionally, culture medium was supplemented with different concentrations of alkanediols. After six days the sebaceous glands were collected and lipids and proteins quantified. The total lipid amount being representative of sebum production was obtained by normalizing the quantified lipids upon the quantified proteins (i.e. mg of lipids/mg of proteins).

Staphylococcus hominis = assay: MIC test (growth inhibition, 96 well plates, OD); details: read-out: Minimum Inhibitory Concentration (MIC)
Description: (§1) The MIC test is a test on growth inhibition. Estimation of Minimum Inhibitory Concentration (MIC) is executed in 96 well plates. Through the comparison of bacterial growth with positive and negative controls via optical density (OD), different concentrations of given test substances are evaluated.
(§2) Bacteria are cultivated under adjusted conditions based on information of the German Collection of Microorganisms and Cell Cultures (DSMZ) and stored in 50% Glycerol prior to use. Afterwards, the following method was applied: Adding growth medium (according to microorganism) to each well of the microplate. Adding the test-substances in different concentrations, positive controls (water controls only with medium) and negative controls (benchmarks according to organism). Adding the microorganism in a concentration of 10^6 CFU/ml (CFU=colony forming units). Incubation of the microplates at appropriate conditions.
(§3) According to resulting growth, substance concentrations are labelled either as inhibiting or not and MIC is defined as the lowest concentration where a complete growth inhibition is visible. Experiments at concentration limits (highest concentration labelled as growth and lowest concentration labelled as inhibiting) are performed at least twice.

Escherichia coli = assay: MIC test (growth inhibition, 96 well plates, OD); details: read-out: Minimum Inhibitory Concentration (MIC)
Description: as §1, §2, §3

Propionibacterium acnes = assay: MIC test (growth inhibition, 96 well plates, OD); details: Cutibacterium acnes; read-out: Minimum Inhibitory Concentration (MIC)
Description: as §1, §2, §3

Corynebacterium jeikeium = assay: MIC test (growth inhibition, 96 well plates, OD); details: read-out: Minimum Inhibitory Concentration (MIC)
Description: as §1, §2, §3

Candida albicans = assay: MIC test (growth inhibition, 96 well plates, OD); details: read-out: Minimum Inhibitory Concentration (MIC)
Description: as §1, §2, §3

Staphylococcus aureus = assay: MIC test (growth inhibition, 96 well plates, OD); details: read-out: Minimum Inhibitory Concentration (MIC)
Description: as §1, §2, §3

MIC (Staphylococcus hominis) | MIC (Escherichia coli) | MIC (Propionibacterium acnes) | MIC (Corynebacterium jeikeium) | MIC (Candida albicans) | MIC (Staphylococcus aureus) | SMILES | antioxidative efficacy without antioxidant (in words) [1] | sebum reduction (human sebaceous glands)
10000 µg/mL (≈ 75.6 mM) | 5000 µg/mL (≈ 37.8 mM) | > 5000 µg/mL | 7500 µg/mL (≈ 56.7 mM) | 5000 µg/mL (≈ 37.8 mM) | 10000 µg/mL (≈ 75.6 mM) | CCCCCC(O)CO (stereo not shown) [1,2-heptanediol] | do not have an antioxidative efficacy | 22%
> 5000 µg/mL | > 5000 µg/mL | > 5000 µg/mL | > 5000 µg/mL | > 5000 µg/mL | 20000 µg/mL (≈ 151 mM) | CCCCC(O)C(C)O (stereo not shown) [2,3-heptanediol] | do not have an antioxidative efficacy | 30%
> 5000 µg/mL | 2500 µg/mL (≈ 17.1 mM) | > 5000 µg/mL | 5000 µg/mL (≈ 34.2 mM) | 5000 µg/mL (≈ 34.2 mM) | 5000 µg/mL (≈ 34.2 mM) | CCCCCC(O)C(C)O (stereo not shown) [2,3-octanediol] |  | 
